# Key:
# aldose reductase = biological target: T1, aldose reductase (Sus scrofa, UniProt P80276); test: Aldose reductase activity-inhibitory action; assay type: biochemical; details: pH 6.2, 25° C., 2 minutes, 3 mM dl-glyceraldehyde substrate, 0.1 mM NADPH, swine lens enzyme
# T1 construct: swine lenses freeze-stored at -80° C. were homogenized with distilled water; from tissue; host or cells: swine lens (40% ammonium sulfate supernatant, dialyzed)
# Protocol: 1) Aldose reductase activity-inhibitory action
# That is, swine lenses freeze-stored at -80° C. were homogenized with distilled water and centrifuged at 10,000 G for 15 minutes. The supernatant was prepared into a 40% ammonium sulfate solution and subjected to centrifugation at 10,000 G for 10 minutes.
# The activity of aldose reductase was determined by the above-mentioned method of S. Hayman et al. That is, the above-mentioned enzyme solution (25 μl) and a drug solution (25 μl) dissolved in 1% DMSO at various concentrations were added to a 40 mM phosphate buffer (200 μl, pH 6.2) containing, at final concentrations, 0.4M lithium sulfate, 0. 1 mM NADPH (reduced type nicotinamide adenine dinucleotide phosphate) and 3 mM dl-glyceraldehyde as a substrate.
# The test drug number indicates the example number to be mentioned later.
# [1] = tested on: sorbitol content in the tissues (erythrocytes, sciatic nerve, lens); test: Inhibitory action on sorbitol accumulation in tissues of rats with experimental diabetes; assay type: in vivo, Sprague-Dawley rats; details: relative to control group = 100%; for Sorbitol accumulation (%) nerve: sciatic nerve
# Protocol: 2) Inhibitory action on sorbitol accumulation in tissues of rats with experimental diabetes
# Test Compounds: Compounds of Example 23 and 29 and EPALRESTAT (described in Japanese Patent Unexamined Publication No. 40478/1982)
# Sprague-Dawley rats (male, 6 weeks old, 5-6 per group) were fasted for 18 hours and injected with streptozotocin (SIGMA, 60 mg/kg) via the tail vein under ether anesthesia to prepare rats with diabetes.
# The test compounds were orally administered at 4, 8 and 24 hours after the injection of streptozotocin. EPALRESTAT was administered orally in the dose of 30 mg/kg and the compounds of Examples 23 and 29 were administered orally in the dose of 10 mg/kg as a 0. 5% carboxymethylcellulose suspension, respectively. During the administrations, the rats were raised under free access to feed and water and the sorbitol content in the tissues (erythrocytes, sciatic nerve, lens) was determined 3 hours after the final administration, according to the enzyme method of H. Y. Bergmeyer et al. [Methods of Enzymatic Analysis, vol. 3, 1323-1330 (1974)] with the use of SDH (sorbitol dehydrogenase) and NAD (β-nicotinamide adenine dinucleotide). The results are expressed in percent (%) relative to the value of a control group administered with a 0.5% carboxymethylcellutose solution (solvent) instead of the compound, which was taken as 100%.
# Normal ICR mice = details: mouse, in vivo
# Protocol: The acute toxicity (safety) of the single dose of the compound of the present invention was confirmed by the following test.
# Normal ICR mice (male, 7 weeks old, 5 per group) were fasted for 18 hours and the compound (300 mg/kg) of Example 29 was orally administered as a 0.5% carboxymethylcellulose suspension. To the control group, a 0.5% carboxymethylcellulose solution alone was orally administered and observation was continued for 14 days thereafter, during which period the mice were allowed to take feed and water freely.
# [2] = 30 mg/kg orally at 4, 8 and 24 hours after streptozotocin
# [3] = 10 mg/kg orally at 4, 8 and 24 hours after streptozotocin, * p < 0.01 Tukey
Compound,IC50 (aldose reductase) [nM],"Sorbitol accumulation (%) erythrocytes [1, 2] [%]","Sorbitol accumulation (%) lens [1, 2] [%]","Sorbitol accumulation (%) nerve [1, 2] [%]","Sorbitol accumulation (%) erythrocytes [1, 3] [%]","Sorbitol accumulation (%) lens [1, 3] [%]","Sorbitol accumulation (%) nerve [1, 3] [%]",death case among the mice (Normal ICR mice)
"CC(/C=C1\SC(=S)N(CC(=O)O)C1=O)=C\c1ccccc1 [EPALRESTAT, reference compound]",21,66.5,89.1,99.9,–,–,–,–
"CN(Cc1nc2c(F)c(F)cc(F)c2s1)C(=O)CCC(=O)O [Example 23, N-(4,5,7-Trifluorobenzothiazol-2-yl)methyl-N-methylsuccinamic acid]",13,–,–,–,6.3,69.5,4.2,–
"CCCCN(Cc1nc2c(F)c(F)cc(F)c2s1)C(=O)CCC(=O)O [Example 26, N-(4,5,7-Trifluorobenzothiazol-2-yl)methyl-N-butylsuccinamic acid]",18,–,–,–,–,–,–,–
O=C(O)CCC(=O)N(Cc1nc2c(F)c(F)cc(F)c2s1)C1CC1 [Example 29],17,–,–,–,12.2,45.4,1.0,no death case

# Reference: patent US5688818A, “Succinamic acid compound, production method thereof and use thereof” (Senju Pharmaceutical Co., Ltd., priority 1993, dated 1997)
